Measurements taken from patent US8334286B2, “Substituted pyrrolo[1,2-A] pyrazines, compositions containing these, processes of making these, and uses thereof” (Neurotune AG, priority 2008, dated 2012).

How the values were obtained:
[1] = system: paclitaxel-induced hyperalgesia; experiment: Paclitaxel-induced hyperalgesia in the rat (paw-pressure test); type: in vivo; conditions: PCT-treated rats, mean ± S.E.M.; for Mechanical threshold (g), After Treatment 15 min: 15 min after treatment; for Mechanical threshold (g), After Treatment 30 min: 30 min after treatment; for Mechanical threshold (g), After Treatment 45 min: 45 min after treatment
Method: In all methods, paw mechanical sensitivity was determined using either the paw pressure test or the incapacitance test. The paw pressure test utilizes a Randall & Selitto apparatus, exerting a force that increases at constant rate (32 g/s). The stimulus at which rats withdrawn the paw was evaluated before and at different times after treatment. Results represent the mean of mechanical thresholds expressed as grams. To avoid any possible damage to the animal paw the maximum applied force was fixed at 240 g. Peripheral neuropathy is induced by repeated administration of vincristine, paclitaxel or oxaliplatin to adult male Sprague-Dawley rats (150-200 g, supplier Harlan). The following protocols were used respectively: • Vincristine: the drug was injected by intravenous route at the dose of 150 μg/kg. The treatment was performed every 2 days, for 5 times, until a cumulative dose of 750 μg/kg was reached. Paw pressure test was performed 4 days after the last injection (Marchand F. et al. 2003, Brain Res. 980:117-120). • Paclitaxel: paclitaxel (PCT) neuropathy was induced by intraperitoneal administration of 0.5 mg/kg once a day, on days 1, 3, 5 and 8. Cumulative paclitaxel dose was 2 mg/kg. The pharmacological test was performed 14-18 days after the last paclitaxel injection (Polomano R. C. et al. 2001, Pain 94:293-304). • Oxaliplatin: 2.4 mg/kg were injected by intraperitoneal route for 5 consecutive days followed by 2 days suspension (one cicle). A total of 3 cycles was performed, reaching a cumulative dose of 36 mg/kg (Cavaletti G. 2001, Eur. J. Cancer 37:2457-2463). The test was performed 48 h after the last oxaliplatin injection. 2. Osteoarthritic Pain

MIA-induced hyperalgesia [2] = experiment: MIA-induced hyperalgesia in the rat (incapacitance test), osteoarthritic pain; type: in vivo; conditions: MIA-treated rats, grams of the right paw, mean ± S.E.M.
Method: In all methods, paw mechanical sensitivity was determined using either the paw pressure test or the incapacitance test. […] Osteoarthritis was induced by a single administration of 2 mg (in a volume of 25 μl) of monosodium iodoacetate (MIA) into the left knee joint of anaesthetized rats (male adult Sprague Dawley rats, 150-200 g, supplier Harlan) (Fernihough J. 2004, Pain 112:83-93). This treatment induces the progressive degeneration of the joint and the development of hyperalgesia, mimicking at the histological and behavioral levels what observed in humans. Pharmacological test was performed 7 days after treatment.

MIA-induced hyperalgesia [3] = experiment: MIA-induced hyperalgesia in the rat (paw-pressure test), osteoarthritic pain; type: in vivo; conditions: MIA-treated rats, mean ± S.E.M.; for Mechanical threshold (g), After Treatment 15 min / Mechanical threshold (g), After Treatment 30 min / Mechanical threshold (g), After Treatment 45 min: 3 mg/kg i.v.; for Mechanical threshold (g), After Treatment 15 min: 15 min after treatment; for Mechanical threshold (g), After Treatment 30 min: 30 min after treatment; for Mechanical threshold (g), After Treatment 45 min: 45 min after treatment; for Mechanical threshold (g), Before Treatment basal: group 3 mg/kg i.v.
Method: In all methods, paw mechanical sensitivity was determined using either the paw pressure test or the incapacitance test. The paw pressure test utilizes a Randall & Selitto apparatus, exerting a force that increases at constant rate (32 g/s). The stimulus at which rats withdrawn the paw was evaluated before and at different times after treatment. Results represent the mean of mechanical thresholds expressed as grams. To avoid any possible damage to the animal paw the maximum applied force was fixed at 240 g. Osteoarthritis was induced by a single administration of 2 mg (in a volume of 25 μl) of monosodium iodoacetate (MIA) into the left knee joint of anaesthetized rats (male adult Sprague Dawley rats, 150-200 g, supplier Harlan) (Fernihough J. 2004, Pain 112:83-93). This treatment induces the progressive degeneration of the joint and the development of hyperalgesia, mimicking at the histological and behavioral levels what observed in humans. Pharmacological test was performed 7 days after treatment.

[4] = 3 mg/kg i.v., 15 min after treatment
[5] = 3 mg/kg i.v., 30 min after treatment
[6] = 3 mg/kg i.v., 45 min after treatment
[7] = before treatment (basal), group 3 mg/kg i.v.

For `O=C1CC[C@@H]2CN(S(=O)(=O)c3cccc(F)c3)CCN12` [Example 4, (R)-(+)2-(3-fluorophenylsulfonyl)hexahydro pyrrolo[1,2-a]pyrazin-6(7H)-one], the “Mechanical threshold (g), After Treatment 15 min” value ([1]; 3 mg/kg i.v.) was 51.1 ± 2.4 g, the “Mechanical threshold (g), After Treatment 30 min” value ([1]; 3 mg/kg i.v.) was 55.8 ± 2.4 g and the “Mechanical threshold (g), After Treatment 45 min” value ([1]; 3 mg/kg i.v.) was 47.3 ± 2.9 g. For the same molecule, the “Weight borne on right hind paw” value (MIA-induced hyperalgesia [2]; [4]) was 90.1 ± 8.2 g, the “Weight borne on right hind paw” value (MIA-induced hyperalgesia [2]; [5]) was 96.2 ± 7.5 g and the “Weight borne on right hind paw” value (MIA-induced hyperalgesia [2]; [6]) was 72.5 ± 7.2 g. The “Weight borne on right hind paw” value (MIA-induced hyperalgesia [2]; [7]) was 41.4 ± 5.8 g, the “Mechanical threshold (g), After Treatment 15 min” value (MIA-induced hyperalgesia [3]) was 41.4 ± 3.1 g and the “Mechanical threshold (g), After Treatment 30 min” value (MIA-induced hyperalgesia [3]) was 53.0 ± 3.5 g. For the same molecule, the “Mechanical threshold (g), After Treatment 45 min” value (MIA-induced hyperalgesia [3]) was 42.6 ± 3.2 g, the “Mechanical threshold (g), Before Treatment basal” value (MIA-induced hyperalgesia [3]) was 23.1 ± 2.5 g and the melting point was 179 to 180 °C.
Molecule `O=C1CC[C@H]2CN(S(=O)(=O)c3ccccc3F)CCN12` [Example 1, (S)-(−)2-(2-fluorophenylsulfonyl)hexahydro pyrrolo[1,2-a]pyrazin-6(7H)-one] has a melting point of 142 to 144 °C.
For `O=C1CC[C@@H]2CN(S(=O)(=O)c3ccc(C(F)(F)F)cc3)CCN12` [Example 10, (R)-(+)-2-(4-(trifluoromethyl)phenylsulfonyl) hexahydropyrrolo [1,2-a]pyrazin-6(7H)-one], the melting point was 226 to 227 °C.
For `Cc1ccccc1S(=O)(=O)N1CCN2C(=O)CC[C@@H]2C1` [Example 6, (R)-(+)-2-(o-tolylsulfonyl)hexahydro pyrrolo[1,2-a]pyrazin-6(7H)-one], the “Mechanical threshold (g), After Treatment 15 min” value ([1]; 3 mg/kg i.v.) was 49.4 ± 3.0 g, the “Mechanical threshold (g), After Treatment 30 min” value ([1]; 3 mg/kg i.v.) was 48.8 ± 2.8 g and the “Mechanical threshold (g), After Treatment 45 min” value ([1]; 3 mg/kg i.v.) was 40.7 ± 2.2 g. It also gave a melting point of 68 to 70 °C.
In the case of `Cc1cccc(S(=O)(=O)N2CCN3C(=O)CC[C@@H]3C2)c1` [Example 7, (R)-(+)-2-(m-tolylsulfonyl)hexahydro pyrrolo[1,2-a]pyrazin-6(7H)-one], the “Mechanical threshold (g), After Treatment 15 min” value ([1]; 3 mg/kg i.v.) is reported as 38.7 ± 2.2 g, the “Mechanical threshold (g), After Treatment 30 min” value ([1]; 3 mg/kg i.v.) is reported as 47.6 ± 2.4 g and the “Mechanical threshold (g), After Treatment 45 min” value ([1]; 3 mg/kg i.v.) is reported as 36.4 ± 2.5 g. For the same molecule, the melting point was 133 to 134 °C.
For `O=C1CC[C@@H]2CN(S(=O)(=O)c3ccccc3F)CCN12` [Example 3, (R)-(+)2-(2-fluorophenylsulfonyl)hexahydro pyrrolo[1,2-a]pyrazin-6(7H)-one], the “Mechanical threshold (g), After Treatment 15 min” value ([1]; 3 mg/kg i.v.) was 45.6 ± 3.9 g, the “Mechanical threshold (g), After Treatment 30 min” value ([1]; 3 mg/kg i.v.) was 53.3 ± 2.7 g and the “Mechanical threshold (g), After Treatment 45 min” value ([1]; 3 mg/kg i.v.) was 46.2 ± 3.3 g. For the same molecule, the “Weight borne on right hind paw” value (MIA-induced hyperalgesia [2]; [4]) was 106.9 ± 7.3 g, the “Weight borne on right hind paw” value (MIA-induced hyperalgesia [2]; [5]) was 112.1 ± 8.5 g and the “Weight borne on right hind paw” value (MIA-induced hyperalgesia [2]; [6]) was 81.8 ± 6.6 g. For the same molecule, the “Weight borne on right hind paw” value (MIA-induced hyperalgesia [2]; [7]) was 41.8 ± 6.0 g, the “Mechanical threshold (g), After Treatment 15 min” value (MIA-induced hyperalgesia [3]) was 61.3 ± 3.0 g and the “Mechanical threshold (g), After Treatment 30 min” value (MIA-induced hyperalgesia [3]) was 58.1 ± 3.7 g. The “Mechanical threshold (g), After Treatment 45 min” value (MIA-induced hyperalgesia [3]) was 49.2 ± 4.1 g, the “Mechanical threshold (g), Before Treatment basal” value (MIA-induced hyperalgesia [3]) was 21.9 ± 1.9 g and the melting point was 136 to 137 °C.
With `N#Cc1ccccc1S(=O)(=O)N1CCN2C(=O)CC[C@@H]2C1` [Example 11, (R)-2-(6-oxohexahydropyrrolo[1,2-a]pyrazin-2(1H)-ylsulfonyl) benzonitrile] the “Mechanical threshold (g), After Treatment 15 min” value ([1]; 3 mg/kg i.v.) was 45.3 ± 1.6 g, the “Mechanical threshold (g), After Treatment 30 min” value ([1]; 3 mg/kg i.v.) was 50.7 ± 2.3 g and the “Mechanical threshold (g), After Treatment 45 min” value ([1]; 3 mg/kg i.v.) was 48.4 ± 2.7 g. The melting point was 198 to 199 °C.
In the case of `O=C1CC[C@@H]2CN(S(=O)(=O)c3cccc(C(F)(F)F)c3)CCN12` [Example 9, (R)-(+)-2-(3-(tifluoromethyl)phenylsulfonyl) hexahydropyrrolo [1,2-a]pyrazin-6(7H)-one], the “Mechanical threshold (g), After Treatment 15 min” value ([1]; 3 mg/kg i.v.) is reported as 41.6 ± 3.6 g, the “Mechanical threshold (g), After Treatment 30 min” value ([1]; 3 mg/kg i.v.) is reported as 44.5 ± 2.8 g and the “Mechanical threshold (g), After Treatment 45 min” value ([1]; 3 mg/kg i.v.) is reported as 42.9 ± 4.3 g. The melting point was 172 to 174 °C.
For `O=C(c1ccccc1F)N1CCN2C(=O)CC[C@H]2C1` [Example 18, (S)-2-(2-fluorobenzoyl) hexahydropyrrolo [1,2-a]pyrazin-6(7H)-one], the melting point was 123 to 124 °C.
For `N#Cc1cccc(S(=O)(=O)N2CCN3C(=O)CC[C@@H]3C2)c1` [Example 12, (R)-3-(6-oxohexahydropyrrolo[1,2-a]pyrazin-2(1H)-ylsulfonyl) benzonitrile], the “Mechanical threshold (g), After Treatment 15 min” value ([1]; 3 mg/kg i.v.) was 39.8 ± 3.7 g, the “Mechanical threshold (g), After Treatment 30 min” value ([1]; 3 mg/kg i.v.) was 41.5 ± 3.8 g and the “Mechanical threshold (g), After Treatment 45 min” value ([1]; 3 mg/kg i.v.) was 39.2 ± 4.4 g. For the same molecule, the melting point was 180 to 181 °C.
For `O=C1CC[C@@H]2CN(S(=O)(=O)c3cccnc3)CCN12` [Example 16, (R)-2-(pyridin-3-ylsulfonyl)hexahydro pyrrolo[1,2-a]pyrazin-6(7H)-one], the melting point was 165 to 166 °C.
Molecule `O=C1CC[C@@H]2CN(S(=O)(=O)c3ccc(F)c(F)c3)CCN12` [Example 5, (R)-(+)-2-(3,4-difluorophenylsulfonyl)hexahydro pyrrolo[1,2-a]pyrazin-6(7H)-one] has a melting point of 208 to 209 °C.
For `COc1cccc(S(=O)(=O)N2CCN3C(=O)CC[C@@H]3C2)c1` [Example 15, (R)-2-(3-methoxyphenylsulfonyl)hexahydro pyrrolo[1,2-a]pyrazin-6(7H)-one], the melting point was 144 to 145 °C.
With `O=C1CC[C@H]2CN(S(=O)(=O)c3cccc(F)c3)CCN12` [Example 2, (S)-(−)2-(3-fluorophenylsulfonyl)hexahydro pyrrolo[1,2-a]pyrazin-6(7H)-one] the melting point was 177 to 179 °C.
For `O=C(c1ccccc1F)N1CCN2C(=O)CC[C@@H]2C1` [Example 20, (R)-2-(2-fluorobenzoyl) hexahydropyrrolo [1,2-a]pyrazin-6(7H)-one], the “Mechanical threshold (g), After Treatment 15 min” value ([1]; 3 mg/kg i.v.) was 41.4 ± 2.3 g, the “Mechanical threshold (g), After Treatment 30 min” value ([1]; 3 mg/kg i.v.) was 45.7 ± 3.5 g and the “Mechanical threshold (g), After Treatment 45 min” value ([1]; 3 mg/kg i.v.) was 35.8 ± 3.0 g. It also gave a melting point of 123 to 124 °C.
Molecule `O=C(c1cccc(F)c1)N1CCN2C(=O)CC[C@H]2C1` [Example 19, (S)-2-(3-fluorobenzoyl) hexahydropyrrolo [1,2-a]pyrazin-6(7H)-one] has a melting point of 161 to 162 °C.
In the case of `O=C(c1cccc(F)c1)N1CCN2C(=O)CC[C@@H]2C1` [Example 21, (R)-2-(3-fluorobenzoyl) hexahydropyrrolo [1,2-a]pyrazin-6(7H)-one], the “Mechanical threshold (g), After Treatment 15 min” value ([1]; 3 mg/kg i.v.) is reported as 40.9 ± 3.5 g, the “Mechanical threshold (g), After Treatment 30 min” value ([1]; 3 mg/kg i.v.) is reported as 46.2 ± 4.3 g and the “Mechanical threshold (g), After Treatment 45 min” value ([1]; 3 mg/kg i.v.) is reported as 37.6 ± 4.3 g. The melting point was 161 to 162 °C.
With `N#Cc1ccc(S(=O)(=O)N2CCN3C(=O)CC[C@@H]3C2)cc1` [Example 13, (R)-(+)-4-(6-oxohexahydropyrrolo[1,2-a]pyrazin-2(1H)-ylsulfonyl) benzonitrile] the “Mechanical threshold (g), After Treatment 15 min” value ([1]; 1 mg/kg i.v.) was 35.6 ± 3.1 g, the “Mechanical threshold (g), After Treatment 30 min” value ([1]; 1 mg/kg i.v.) was 39.7 ± 2.4 g and the “Mechanical threshold (g), After Treatment 45 min” value ([1]; 1 mg/kg i.v.) was 34.8 ± 3.3 g. The melting point was 242 to 243 °C.
With `Cc1ccc(N2CCN3C(=O)CCC3C2=O)cc1` (centres unmarked) [Example 24, 2-p-Tolyl-tetrahydro-pyrrolo[1,2-a]pyrazine-1,6-dione] the “Mechanical threshold (g), After Treatment 15 min” value ([1]; 3 mg/kg i.v.) was 42.2 ± 2.6 g, the “Mechanical threshold (g), After Treatment 30 min” value ([1]; 3 mg/kg i.v.) was 43.4 ± 4.1 g and the “Mechanical threshold (g), After Treatment 45 min” value ([1]; 3 mg/kg i.v.) was 36.5 ± 4.2 g. The melting point was 115 to 117 °C.
